The values below come from patent US20140364316A1, “COMPOSITION FOR IMPROVING RESISTANCE TO ENVIRONMENTAL STRESS OF PLANT AND METHOD FOR IMPROVING RESISTANCE TO ENVIRONMENTAL STRESS OF PLANT” (The Shizuoka Chamber of Commerce and Industry, priority 2012, published 2014).

Data set [1] has as its system rats. Conditions: Non Patent Literature 1; cited from earlier work.
Data set [2] relates to Arabidopsis thaliana. The data set is described as follows: Evaluation of high temperature resistance 2 (35° C. for 1 hour and 45° C. for 2 hours). It counts as in vivo. The settings on record: 4th day after high temperature exposure. The protocol: As a sanguinarine reagent available on the market, a sanguinarine chloride hydrate (S5890-25MG manufactured by Sigma-Aldrich Japan K.K.) was obtained, the sanguinarine chloride hydrate was dissolved in water such that the sanguinarine concentration is 0.2 ppm, 2 ppm, or 20 ppm, and thus a sample liquid for each test plot was respectively prepared. In addition, as a sample liquid for the control plot, a 0.5% DMSO solution was prepared. By using these sample liquids, the following tests were performed.
Seeds of Arabidopsis thaliana were sowed and cultivated in a rockwool cube which had been saturated with a diluent of the HYPONEX (registered trademark) diluted by 1,000 times. The cultivation environment conditions were a cycle of [bright place for 16 hours+dark place for 8 hours], and a temperature of 22° C. On around the strain of Arabidopsis thaliana on the 14th day after the start of cultivation, a sample liquid composed of an aqueous sanguinarine solution that had been adjusted to various concentrations, and a 0.5% DMSO solution for the control plot were respectively applied dropwise using a dropper. The dropping amount was set to 100 μL per a plant body. Therefore, the sanguinarine amount applied per a plant body in each test plot was 0.02 μg in the test plot of 0.2 ppm, 0.2 μg in the test plot of 2 ppm, and 0.002 mg in the test plot of 20 ppm. After the dropping, under the initial cultivation environment conditions, the cultivation was continued for 2 days, then the room temperature was increased to 35° C., and exposure was performed for 1 hour in a bright place. Further, the room temperature was increased to 45° C., and high temperature exposure was performed for 2 hours in a dark place. […]
The state of the grown true leaves of Arabidopsis thaliana on the 4th day after the high temperature exposure under the above conditions was visually evaluated on a four level scale (index, 3: plant death, 2: partial plant death, 1: partial whitening, and 0: normal), and by assigning the values to the following equation, the average degree of damage was calculated. […]

Consider `C[n+]1cc2c3c(ccc2c2ccc4cc5c(cc4c21)OCO5)OCO3` [sanguinarine], for which the “physiological disorders after administration” value in data set [1] is given as “disorders of particular note were not observed”. The “average degree of damage with increasing dosage” value in data set [2] (0.2 ppm to 20 ppm, FIG. 4) was “average degree of damage of Arabidopsis thaliana is reduced”. Also, in data set [2] (sanguinarine 0.2 ppm, 2 ppm or 20 ppm, 100 μL per plant body, FIG. 3, FIG. 4), the “growth (appearance and average degree of damage) compared with control plot (0.5% DMSO solution)” value was “growth was relatively favorable”. Further, the “average degree of damage” value in data set [2] (sanguinarine 20 ppm (0.002 mg per plant body)) is “less than 10%”.
